What was measured:
blood-brain barrier = assay: Blood-brain barrier integrity by Evan's blue dye extravasation after cortical impact injury; assay type: in vivo, rat; conditions: for blood-brain barrier permeability (Evans Blue extravasation): measured 24 h after TBI, vs vehicle
Experimental: Blood-brain barrier integrity was assessed using extravagation of Evan's blue (EB) dye. When injected through the jugular vein of normal animals, EB is not detected in the nervous tissue. However, if the blood-brain barrier is compromised, EB can be detected in nervous tissues. The amount of EB can be quantified by extracting the dye from the tissue followed by spectrophotometric analysis at 610 nm wavelength. One and one-half hours prior to the above time points, animals were anesthetized and injected with 3% EB in saline (4 ml/kg) through the jugular vein. Animals were transcardially perfused with phosphate-buffered saline (PBS) until the out-coming liquid was clear followed by 4% paraformaldehyde (400 ml). The brain was removed and 2 mm-thick sections were prepared and incubated with 3 ml of 99.5% formamide in a 60° C. water bath for 24 hr. At the end of the incubation, tissues were removed and the formamide solution was centrifuged in an Eppendorf centrifuge at 12,000 rpm for 20 min. The supernatant solution was collected and the optical density at 610 nm was measured to determine the relative amount of EB dye in each sample.

[1] = test system: focal cerebral ischemia (CCA/MCA occlusion); conditions: 5 mg/kg i.p. 15 minutes after onset of ischemia; 3 hours CCA/MCA occlusion; three days following ischemia; vehicle 153.87±11.01 mm^3; P<0.05
Experimental: Focal ischemia was induced by temporary left common carotid/middle cerebral artery (CCA/MCA) occlusion^1,41. Briefly, rats were anesthetized with chloral hydrate (0.45 g/kg IP). Core body temperature was maintained at 36.5±0.5° C. during ischemia The ipsilateral CCA was isolated and tagged through a ventral, cervical midline incision. A 0.005-inch-diameter stainless steel wire (Small Parts Inc) was placed underneath the left MCA rostral to the rhinal fissure, proximal to the major bifurcation of the MCA, and distal to the lenticulostriate arteries. The artery was then lifted, and the wire was rotated clockwise to ensure occlusion. The CCA was next occluded with an atraumatic aneurysm clip. Cerebral perfusion at the cortical surface, 3 mm distal to the locus of the MCA occlusion, was measured with a laser-Doppler flowmeter (LDF) (model BPM2, Vesamedic). […] After 180 minutes of MCA/CCA occlusion, reperfusion was established by reversing the occlusion procedure. […]
Morphometric determination of infarct volume was obtained with the help of a computer-based image analyzer operated by Brain software (Drexel University). […] The infarct volume (mm^3) was calculated from the difference between the volume of contralateral cortex and the volume of the TTC-stained (nonischemic) portion of ipsilateral cortex of each rat. […]

brain injured rats [2] = conditions: 5 mg/kg i.p. 6 hr post-injury, P<0.05 vs vehicle
Text: This model utilizes a pneumatic piston to deform a controllable volume of exposed cortex over a range of impact velocities. All protocols were in compliance with NIH's Guide for the Care and Use of Laboratory Animals and approved by the Institutional Animal Care and Use Committee. A controlled cortical impact device was used to cause brain trauma as previously described^6,7,26. Rats were anesthetized using 5% isoflurane with a 1:1 N2O:O2 mixture. The animals were then maintained with a 2% isoflurane/2:1 N2O:O2 mixture, via a face mask. Animals were mounted in the injury device stereotaxic frame secured by ear bars and an incisor bar. The head was held in a horizontal plane with respect to the interaural line. A midline incision was made, the soft tissues reflected, and bilateral 6 mm craniectomies were made midway between the bregma and lambda with the medial edge of each craniectomy 1 mm lateral to midline. Rats received a single impact at 1.8 mm deformation with an impact velocity of 6 m/sec at an angle of 20° from the vertical plane. Core body temperature was maintained at 37-38° C. by use of a rectal thermometer coupled to a heating pad. Sham rats were anesthetized and received craniectomies but were not cortically impacted. After injury or sham operation, the scalp was sutured and the animal placed in an oxygenated chamber and monitored during recovery. […]

AQP4 mRNA = conditions: 5 mg/kg i.p.; 24 hr post-administration; cortical tissue; vehicle 100.00±18.16%; mean±S.E.M., n=3; P<0.05
Experimental: Animals were killed and parietal cortical tissues were quickly dissected out and frozen in dry ice. The frozen tissue was homogenized in 1.5ml of TriZol (Invitrogen) per 100 mg tissue, followed by addition of chloroform (1:5) and incubation on ice for 20 min. The homogenate was centrifuged at 14,000×g for 30 min, and total RNA was precipitated by isopropanol. 1.0 jig total RNA was reverse transcribed for 2 hours at 37° C. in a 20μl mixture containing 50 mM Tris-HCl pH 8.3, 75 mM KCl, 3.0 mM MgCl2, 10 mM DTT, 2.5 μM random hexamer, 1.0 mM each dNTP, 20 U RNasin, and 200 U Superscript II reverse transcriptase. The level of expression of each target gene was quantified using a BioRad iCycler real-time PCR system (BioRad, Hercules, CA). Reactions were carried out in triplicate. Each 30 μl reaction mixture consisted of 1.5 μl of the cDNA and 18 mM Tris-HCl pH 8.3, 55 mM KCl, 2.0 mM MgCl2, 0.2 mM of each dNTP, 0.5μM of each primer, 10 nM fluorescein, 1:75,000 dilution of Sybr green I, and 2 U AmpliTaq DNA polymerase. […] The resultant data was analyzed using the iCycler iQ Real-Time Detection System software^33.
To assess the ability of SUL to induce AQP4 expression, rats were intraperitonealy injected with either 5 mg/kg SUL prepared in corn oil or equal volume of vehicle. […] AQP4 mRNA levels were evaluated using real-time PCR. […]

[3] = test system: rat endothelial cell antigen (RECA); conditions: 5 mg/kg and 20 mg/kg i.p. at 6 h after injury; samples at 24 h; cortices ipsilateral to injury; P<0.05 vs vehicle
Text: (§1) This model utilizes a pneumatic piston to deform a controllable volume of exposed cortex over a range of impact velocities. All protocols were in compliance with NIH's Guide for the Care and Use of Laboratory Animals and approved by the Institutional Animal Care and Use Committee. A controlled cortical impact device was used to cause brain trauma as previously described^6,7,26. Rats were anesthetized using 5% isoflurane with a 1:1 N2O:O2 mixture. The animals were then maintained with a 2% isoflurane/2:1 N2O:O2 mixture, via a face mask. Animals were mounted in the injury device stereotaxic frame secured by ear bars and an incisor bar. The head was held in a horizontal plane with respect to the interaural line. A midline incision was made, the soft tissues reflected, and bilateral 6 mm craniectomies were made midway between the bregma and lambda with the medial edge of each craniectomy 1 mm lateral to midline. Rats received a single impact at 1.8 mm deformation with an impact velocity of 6 m/sec at an angle of 20° from the vertical plane. Core body temperature was maintained at 37-38° C. by use of a rectal thermometer coupled to a heating pad. Sham rats were anesthetized and received craniectomies but were not cortically impacted. After injury or sham operation, the scalp was sutured and the animal placed in an oxygenated chamber and monitored during recovery. All rats were allowed to completely recover from the anesthesia after the surgery in a warm chamber before being sent back to the home cages. The type of brain trauma employed in this study produces both motor and cognitive deficits similar to those seen in human patients^6.
(§2) Rats were killed and brains were removed quickly and dip-frozen in −80° C. isopentane for 20 sec.

[4] = test system: glial fibrilary acidic protein (GFAP); conditions: 24 hr after injury; vehicle vs SUL-treated animals
Text: as §1, §2

[5] = test system: tight junction proteins (claudin-5, occludin, ZO-1); conditions: administration six hours after injury; P<0.05 vs injury+vehicle
Text: as §1, §2

[6] = test system: endothelial barrier antigen (EBA); conditions: 5 mg/kg and 20 mg/kg i.p. at 6 h after injury; samples at 24 h; cortices ipsilateral to injury; P<0.05 vs vehicle
Text: as §1, §2

aquaporin-4 (AQP4) = test system: aquaporin-4 (AQP4)
Text: as §1, §2

[7] = test system: von-Willebrand factor (vWF); conditions: administration six hours after injury; vs injury+vehicle
Text: as §1, §2

brain injured rats [8] = test system: brain injured rats
Text: as §1

brain swelling (edema) = conditions: P<0.05 vs vehicle
Text: as §1

cortical cultures = conditions: pretreatment prior to hydrogen peroxide or glutamate exposure; in vitro; cited from earlier work

C=CCN=C=S [allyl isothiocyanate]
blood-brain barrier permeability (Evans Blue extravasation) (blood-brain barrier; 2.8 mg/kg i.p. 6 hr after brain trauma): decreased blood-brain barrier permeability

S=C=NCCc1ccccc1 [phenylethyl isothiocyanate]
blood-brain barrier permeability (Evans Blue extravasation) (blood-brain barrier; 4.6 mg/kg i.p. 6 hr after brain trauma): decreased blood-brain barrier permeability

C[S@@+]([O-])CCCCN=C=S [sulforaphane]
total infarct volume [1]: 100.52±16.35 mm^3
extinction of fear memory (freezing during extinction training) (brain injured rats [2]; extinction on day 23 post-injury, n=8): Extinction was more rapid
memory for the extinction event (freezing to the tone) (brain injured rats [2]; tested 48 hr following extinction training, 3 tone presentations): reduced freezing to the tone
AQP4 mRNA level (AQP4 mRNA): 289.76±16.52%
RECA staining, integrated fluorescent intensity [3]: significantly improves
GFAP immunoreactivity in the penumbra region [4]: lack of difference
tight junction protein levels (claudin-5, occludin, ZO-1 immunoreactivity) [5]: significantly attenuated the loss
EBA staining, integrated fluorescent intensity [6]: significantly improves
AQP4 immuno-fluorescence intensity in the injury core (aquaporin-4 (AQP4); 5 mg/kg i.p. at 6 hr after injury, 24 hr after injury, mean±S.E.M., n=4, injury-vehicle 13.79±2.22%, P<0.05): 35.25±3.13%
AQP4 levels (fluorescence intensity) in the penumbra region (aquaporin-4 (AQP4); post-injury administration, at both 24 hr and 3 days following injury, P<0.05 vs vehicle): significantly increased
vWF levels (immunoreactivity) [7]: partially restored
spatial learning and memory (latency to find the hidden platform) (brain injured rats [8]; 5 mg/kg 6 hr post-injury, days 14-18 post-injury, n=9, P<0.05 vs vehicle): improved spatial learning and memory
working memory: latency to hidden platform, match trial vs location trial (brain injured rats [8]; 5mg/kg i.p. 6 hr post-injury, tested day 21 post-injury, n=8, P<0.05): find the hidden platform significantly faster during the match trial
difference in brain water content between injured and uninjured hemispheres (brain swelling (edema); 5 mg/kg ip at 15 min and at 6 hr after injury, measured at 3 day following injury): significantly decreases the difference in brain water content
brain water content (difference in percent water content between injured and uninjured hemispheres) (brain swelling (edema); 5 mg/kg ip at 15 min and at 6 hr following injury, measured 24 hr following injury): decreases brain water content
increase in brain water content (difference between injured and uninjured hemispheres) (brain swelling (edema); delayed administration, 5 mg/kg ip at 6 hr after injury, measured at 3 days after injury): significantly reduces the increase in brain water content
neuroprotection of cortical cultures (cortical cultures): robust neuroprotection
blood-brain barrier permeability (Evans Blue extravasation) (blood-brain barrier; 5 mg/kg i.p. 6 hr after brain trauma): decreased blood-brain barrier permeability
Evan's blue dye extravasation into brain tissue (OD at 610 nm) (blood-brain barrier; 5 mg/kg i.p. at 6 h after TBI, 24 hr and 72 hr time points, ipsilateral side, P<0.05 vs vehicle): significantly attenuate dye extravasation
extravasation of Evan's Blue dye (blood-brain barrier; oral 60 mg/kg/day for one or four days, day one given 6 hr following brain injury, P<0.05 vs vehicle): effective in decreasing the extravasation of Evan's Blue dye

Reference: US20060116423A1, “Methods and compositions for treatment of central nervous system injury with isothiocyanates” (priority 2004, published 2006)
